Values joined by “and” are separate entries in the source; they are usually repeats but may differ in a detail not shown here. Equal values may be shown once. Read-outs that look alike come from different tables or passages of the source.

The test system of data set [1] is EpiAirway™ (AIR-100) tissues. The note with it: H&E staining after 24-hour recovery.
Data set [2] relates to EpiAirway™ (AIR-100) tissues. To be noted: for TEER Significant?: alpha 0.05.
The subject of data set [3] is EpiAirway™ (AIR-100) tissues.
The mark [4] stands for this setting: post 24 hr recovery: Untreated Control vs treatment.
Setting [5] is: pre exposure vs post 24 hr recovery, same treatment.

As for Triton X-100 [0.5% Triton], the “Tissue morphology” value in data set [1] is given as “significant tissue disruption”. Also, in data set [2] (24-hour recovery), the “Effect on barrier function / TEER” value was “dropped completely”. In addition, in data set [2] (group mean n=3 tissues, after 24-hour recovery), the “24 hr TEER Mean” value worked out at 8.6 Ohms*cm2. Also, the “Pre-Exposure TEER Mean” value in data set [2] (group mean n=3 tissues, before exposure) was 749.8 Ohms*cm2. The “24 hr TEER Ohms*cm2” value in data set [2] (per tissue, after 24-hour recovery) is 9.0 Ohms*cm2 and 8.4 Ohms*cm2. In data set [2] (per tissue, before exposure), the “Pre-Exposure TEER Ohms*cm2” value was 672.0 Ohms*cm2 and 832.8 Ohms*cm2 and 744.6 Ohms*cm2. Also, the “TEER Mean Diff., Tukey's multiple comparisons test” value is recorded as 628.6 in data set [2] (setting [4]) and 741.2 in data set [2] (setting [5]). Besides, the “TEER Significant?” value in data set [2] (setting [4]) and in data set [2] (setting [5]) was “Yes” in each case. In addition, the “TEER statistics test details: group mean, pre exposure” value in data set [2] (pre exposure, N=3) worked out at 749.8. The “24 hr TEER” value in data set [2] (raw reading per tissue after 24-hour recovery, background 5 not subtracted) is 20 and 19. In data set [2] (raw reading per tissue before exposure, background 5 not subtracted), the “Pre-Exposure TEER” value is 1125 and 1393 and 1246. For the same substance, the “Effect on tissue viability” value in data set [3] (LDH assay, 24-hour time point) is given as “complete loss of viability”. For the same substance, in data set [3] (Untreated Control vs treatment), the “LDH viability Mean Diff., Tukey's multiple comparisons test” value was 100. Further, the “LDH viability Significant?” value in data set [3] (Untreated Control vs treatment, alpha 0.05) is “Yes”. Further, the “LDH Group Mean OD” value in data set [3] (group mean n=3 tissues, 24-hour time point) is 1.125. In addition, the “% Viability Mean” value in data set [3] (group mean n=3 tissues, LDH assay, 24-hour time point) came to 0.0%. Further, the “LDH Mean OD” value in data set [3] (mean of duplicates per tissue, 24-hour time point) was 1.181 and 1.062 and 1.132. Further, the “LDH statistics test details: group mean” value in data set [3] (percent viability, 24-hour time point) is −0.01667.
